Legend:
[1] = molecular target: T1, AP2-associated protein kinase 1 (Homo sapiens, UniProt Q2M2I8); assay: Inhibition of full length human AAK1 expressed in HEK293F cells assessed as suppression of AP2 phosphorylation measured after 3 hrs by Western blot analysis based cellular assay; assay type: cell-based
[2] = molecular target: AP2-associated protein kinase 1 (Mus musculus, UniProt Q3UHJ0); assay: Displacement of 3H-LP-927443 from AAK1 in C57BL6 mouse brain homogenate assessed as inhibition constant incubated for 1 hr by liquid scintillation counter analysis; assay type: tissue-based
[3] = Metabolic stability in rat liver microsomes assessed as parent compound remaining at 0.5 uM incubated for 10 mins in presence of NADPH by LC-MS/MS analysis; assay type: ADME, Microsome; settings: read-out: Stability
[4] = molecular target: T1, AP2-associated protein kinase 1; assay: Inhibition of bacterially expressed GST-Xa-tagged human AAK1 using 5-FAM-labelled Aha-KEEQSQITSQVTGQIGWR-NH2 peptide as substrate incubated for 3 hrs in presence of ATP by electrophoretic analysis
[5] = Metabolic stability in human liver microsomes assessed as parent compound remaining at 0.5 uM incubated for 10 mins in presence of NADPH by LC-MS/MS analysis; assay type: ADME, Microsome; settings: read-out: Stability
[6] = Metabolic stability in mouse liver microsomes assessed as parent compound remaining at 0.5 uM incubated for 10 mins in presence of NADPH by LC-MS/MS analysis; assay type: ADME, Microsome; settings: liver microsomes, read-out: Stability
Cytochrome P450 3A4 = Cytochrome P450 3A4 (Homo sapiens, UniProt P08684); assay: Inhibition of CYP3A4 (unknown origin) incubated for 10 mins in presence of NADPH by LC-MS/MS analysis; assay type: ADME
Sequence of Cytochrome P450 3A4 (P08684 whole entry): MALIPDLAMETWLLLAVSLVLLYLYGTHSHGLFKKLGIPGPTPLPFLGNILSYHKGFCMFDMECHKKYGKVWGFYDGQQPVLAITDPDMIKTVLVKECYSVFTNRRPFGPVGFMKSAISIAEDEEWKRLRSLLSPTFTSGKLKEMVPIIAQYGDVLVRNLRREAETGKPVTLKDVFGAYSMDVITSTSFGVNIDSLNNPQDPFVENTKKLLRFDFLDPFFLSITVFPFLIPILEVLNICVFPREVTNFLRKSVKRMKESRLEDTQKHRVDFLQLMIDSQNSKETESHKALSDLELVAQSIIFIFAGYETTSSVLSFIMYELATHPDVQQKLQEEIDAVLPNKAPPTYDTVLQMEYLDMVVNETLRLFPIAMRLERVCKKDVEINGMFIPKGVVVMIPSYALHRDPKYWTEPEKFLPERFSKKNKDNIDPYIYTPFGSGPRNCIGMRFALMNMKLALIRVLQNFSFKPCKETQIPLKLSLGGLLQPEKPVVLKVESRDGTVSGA

T1 sequence (Q2M2I8 whole entry): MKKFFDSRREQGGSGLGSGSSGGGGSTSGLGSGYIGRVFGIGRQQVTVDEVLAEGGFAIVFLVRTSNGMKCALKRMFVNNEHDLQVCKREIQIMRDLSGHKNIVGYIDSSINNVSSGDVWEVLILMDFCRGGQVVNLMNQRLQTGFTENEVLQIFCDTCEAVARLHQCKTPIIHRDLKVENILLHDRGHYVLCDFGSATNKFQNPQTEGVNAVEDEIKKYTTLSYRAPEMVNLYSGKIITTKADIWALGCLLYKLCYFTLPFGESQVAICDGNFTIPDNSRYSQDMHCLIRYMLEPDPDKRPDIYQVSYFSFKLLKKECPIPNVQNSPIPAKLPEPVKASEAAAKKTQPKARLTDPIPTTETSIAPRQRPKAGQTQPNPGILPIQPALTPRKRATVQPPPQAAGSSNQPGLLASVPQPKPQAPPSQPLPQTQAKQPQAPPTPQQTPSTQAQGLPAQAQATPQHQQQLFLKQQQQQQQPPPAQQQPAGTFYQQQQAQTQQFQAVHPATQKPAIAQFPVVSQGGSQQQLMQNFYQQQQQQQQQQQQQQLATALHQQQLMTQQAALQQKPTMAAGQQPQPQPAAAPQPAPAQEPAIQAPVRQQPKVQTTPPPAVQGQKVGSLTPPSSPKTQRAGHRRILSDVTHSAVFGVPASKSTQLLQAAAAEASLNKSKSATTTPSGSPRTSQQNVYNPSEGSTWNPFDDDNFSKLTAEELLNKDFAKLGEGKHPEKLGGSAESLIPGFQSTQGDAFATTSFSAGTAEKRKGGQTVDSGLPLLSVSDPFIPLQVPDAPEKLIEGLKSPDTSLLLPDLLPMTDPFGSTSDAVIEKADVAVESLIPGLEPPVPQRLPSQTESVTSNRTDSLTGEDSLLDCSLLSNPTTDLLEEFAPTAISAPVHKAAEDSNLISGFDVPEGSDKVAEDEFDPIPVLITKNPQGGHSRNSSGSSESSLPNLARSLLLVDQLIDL
Sequence of AP2-associated protein kinase 1 (Mus musculus, UniProt Q3UHJ0) (Q3UHJ0 whole entry): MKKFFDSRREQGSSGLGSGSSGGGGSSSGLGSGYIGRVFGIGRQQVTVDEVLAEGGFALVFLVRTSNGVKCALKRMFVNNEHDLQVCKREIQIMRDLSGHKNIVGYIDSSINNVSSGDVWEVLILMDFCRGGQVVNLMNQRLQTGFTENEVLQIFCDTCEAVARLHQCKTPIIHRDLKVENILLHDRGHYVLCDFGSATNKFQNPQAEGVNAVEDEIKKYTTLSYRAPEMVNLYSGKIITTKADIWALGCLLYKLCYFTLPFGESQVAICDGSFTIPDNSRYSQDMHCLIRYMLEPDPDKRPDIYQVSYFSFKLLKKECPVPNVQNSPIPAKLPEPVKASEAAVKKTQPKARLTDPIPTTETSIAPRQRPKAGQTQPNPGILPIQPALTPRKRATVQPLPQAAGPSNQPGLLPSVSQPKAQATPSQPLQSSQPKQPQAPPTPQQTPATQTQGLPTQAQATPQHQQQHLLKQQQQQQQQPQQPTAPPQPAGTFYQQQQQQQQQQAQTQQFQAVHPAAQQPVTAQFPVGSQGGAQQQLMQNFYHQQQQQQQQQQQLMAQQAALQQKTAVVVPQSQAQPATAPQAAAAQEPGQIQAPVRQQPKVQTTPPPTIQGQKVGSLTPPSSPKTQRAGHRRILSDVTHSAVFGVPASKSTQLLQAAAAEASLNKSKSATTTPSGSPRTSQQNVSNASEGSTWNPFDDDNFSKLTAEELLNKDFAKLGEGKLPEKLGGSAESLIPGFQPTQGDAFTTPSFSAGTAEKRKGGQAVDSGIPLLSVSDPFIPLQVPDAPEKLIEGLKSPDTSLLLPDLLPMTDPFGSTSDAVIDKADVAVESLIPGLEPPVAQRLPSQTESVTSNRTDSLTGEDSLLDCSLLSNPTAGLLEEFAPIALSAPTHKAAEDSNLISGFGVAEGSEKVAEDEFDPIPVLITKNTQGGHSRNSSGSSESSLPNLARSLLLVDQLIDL

Row | SMILES | IC50 [1] | Ki [2] | remaining at 10 min, 0.5 µM [3] | IC50 [4] | remaining at 10 min, 0.5 µM [5] | remaining at 10 min, 0.5 µM [6] | IC50 (Cytochrome P450 3A4)
1 | COC(=O)Nc1cc(-c2ccc(OC[C@@](C)(N)CC(C)C)c(OC(F)(F)F)c2)ccn1 | 0.2 nM | 0.04 nM | 83% | 0.6 nM | 81% | 43% | 7800 nM
2 | COC(=O)Nc1cc(-c2ccc(OC[C@@](C)(N)CC(C)C)c(C(F)F)c2)ccn1 | 0.6 nM | 0.04 nM | 86% | 0.5 nM | 88% | 69% | > 20000 nM
3 | CC(C)C[C@](C)(N)COc1cnc(-c2ccnc(Cl)c2)cc1Cl | – | – | 98% | – | 86% | 92% | > 20000 nM
4 | COC(=O)Nc1cc(-c2cc(C(F)F)c(OC[C@@](C)(N)CC(C)C)cn2)ccn1 | – | 0.07 nM | 87% | 0.4 nM | 79% | 63% | > 20000 nM
5 | COC(=O)Nc1cc(-c2cc(OC)c(OC[C@@](C)(N)CC(C)C)cn2)ccn1 | – | – | 96% | 3.5 nM | 91% | 100% | > 20000 nM
6 | COC(=O)Nc1cc(-c2ccc(OC[C@@](C)(N)CC(C)C)cn2)ccn1 (racemic) | – | 18 nM | 100% | 23 nM | 93% | 93% | > 20000 nM
7 | COC(=O)Nc1cc(-c2cc(Cl)c(OC[C@@](C)(N)CC(C)C)cn2)ccn1 | – | 0.11 nM | 99% | 1.1 nM | 96% | 87% | > 20000 nM
8 | COC(=O)Nc1cc(-c2ccc(OC[C@@](C)(N)CC(C)C)nc2)ccn1 | – | 4.9 nM | 96% | 28 nM | 100% | 79% | > 20000 nM
9 | CC(C)C[C@H](N)COc1ccc(-c2ccnc(NCc3ccccc3)c2)cc1 | – | – | – | 127 nM | – | – | –
10 | COC(=O)Nc1cc(-c2ccc(OC[C@@](C)(N)CC(C)C)c(C)c2C)ccn1 (racemic) | 9.7 nM | 0.26 nM | 83% | 4.5 nM | 93% | 70% | –
11 | COC(=O)Nc1cc(-c2ccc(OC[C@@](C)(N)CC(C)C)c(C)c2)ccn1 (racemic) | 0.8 nM | 0.08 nM | 96% | 0.8 nM | 98% | 75% | > 20000 nM
12 | Cc1cc(-c2cc(C)c(OC[C@@](C)(N)CC(C)C)cn2)ccn1 | – | 4.7 nM | 72% | 19 nM | 79% | 72% | –
13 | COC(=O)Nc1cc(-c2ccc(OC[C@@](C)(N)CC(C)C)c(CO)c2)ccn1 | 3.9 nM | 0.63 nM | 100% | – | 91% | 95% | > 20000 nM
14 | COC(=O)Nc1cc(-c2cc(C(F)(F)F)c(OC[C@@](C)(N)CC(C)C)cn2)ccn1 | 0.4 nM | – | 79% | 0.4 nM | 80% | 78% | 5300 nM
15 | Cc1cc(-c2ccnc(C(F)F)c2)ncc1OC[C@@](C)(N)CC(C)C | 12 nM | 0.3 nM | 76% | 1.4 nM | 83% | 80% | > 20000 nM
16 | COC(=O)Nc1cc(-c2ccc(OC[C@@](C)(N)CC(C)C)c(C3CC3)c2)ccn1 | 1 nM | 0.05 nM | 80% | 0.4 nM | 100% | 33% | 16300 nM
17 | Cc1cc(-c2cc(C(F)(F)F)c(OC[C@@](C)(N)CC(C)C)cn2)ccn1 | – | – | 75% | 1.2 nM | 90% | 65% | > 20000 nM
18 | CC(C)C[C@H](N)COc1ccc(-c2ccnc(N)c2)cc1 | – | 13 nM | – | 21 nM | – | – | –
19 | COC(=O)Nc1cc(-c2ccc(OC[C@@](C)(N)CC(C)C)c(C(F)(F)F)c2)ccn1 | 1.5 nM | 0.05 nM | 74% | 0.3 nM | 80% | 68% | 6900 nM
20 | COC(=O)Nc1cc(-c2cnc(OC[C@@](C)(N)CC(C)C)cc2C)ccn1 | – | 41 nM | 87% | 490 nM | 98% | 69% | > 20000 nM

More lines, now with the values ahead:

Row | IC50 [1] | Ki [2] | remaining at 10 min, 0.5 µM [3] | IC50 [4] | remaining at 10 min, 0.5 µM [5] | remaining at 10 min, 0.5 µM [6] | IC50 (Cytochrome P450 3A4) | SMILES
21 | – | 0.2 nM | 94% | 1.1 nM | 82% | 71% | > 20000 nM | COC(=O)Nc1cc(-c2ccc(OC[C@@](C)(N)CC(C)C)c(F)c2)ccn1
22 | 1.4 nM | 0.09 nM | 85% | 0.5 nM | 81% | 66% | 740 nM | COC(=O)Nc1cc(-c2ccc(OC[C@@](C)(N)CC(C)C)c(Cl)c2)ccn1 (racemic)
23 | 0.2 nM | 0.06 nM | 100% | 0.5 nM | 89% | 86% | 2600 nM | CC(=O)Nc1cc(-c2ccc(OC[C@@H](N)CC(C)C)c(Cl)c2)ccn1
24 | 8.1 nM | 0.9 nM | – | 4.6 nM | – | – | – | CC(=O)Nc1cc(-c2ccc(OC[C@@H](N)CC(C)C)cc2)ccn1
25 | 1.6 nM | 0.07 nM | 87% | 0.8 nM | 54% | 27% | 9500 nM | CC(=O)Nc1cc(-c2ccc(OC[C@@](C)(N)CC(C)C)c(OC(F)(F)F)c2)ccn1
26 | 6.7 nM | 0.6 nM | 90% | 1.3 nM | 78% | 70% | 7000 nM | CC(=O)Nc1cc(-c2cc(F)c(OC[C@@H](N)CC(C)C)cc2F)ccn1
27 | 4.1 nM | 0.08 nM | 76% | 0.8 nM | 91% | 53% | 180 nM | COC(=O)Nc1cc(-c2ccc(OC[C@@H](N)CC(C)C)c(-c3ccno3)c2)ccn1
28 | 0.4 nM | 0.04 nM | 90% | 0.4 nM | 66% | 54% | 14000 nM | CC(=O)Nc1cc(-c2ccc(OC[C@@](C)(N)CC(C)C)c(C(F)(F)F)c2)ccn1
29 | 0.45 nM | 0.04 nM | 80% | 0.5 nM | 91% | 35% | 230 nM | CC(=O)Nc1cc(-c2ccc(OC[C@@H](N)CC(C)C)c(OC(F)(F)F)c2)ccn1
30 | 4.8 nM | 1.5 nM | 91% | 5 nM | 74% | 69% | 470 nM | CC(=O)Nc1cc(-c2cc(F)c(OC[C@@H](N)CC(C)C)c(C(F)(F)F)c2)ccn1
31 | 0.5 nM | 0.05 nM | 84% | 0.6 nM | 74% | 57% | – | CC(=O)Nc1cc(-c2ccc(OC[C@@](C)(N)CC(C)C)c(C(F)F)c2)ccn1
32 | 3.7 nM | 0.24 nM | 92% | 0.8 nM | 91% | 70% | > 20000 nM | CC(=O)Nc1cc(-c2ccc(OC[C@@](C)(N)CC(C)C)c(F)c2)ccn1
33 | 0.75 nM | 0.04 nM | 82% | 0.4 nM | 91% | 53% | 330 nM | CC(=O)Nc1cc(-c2ccc(OC[C@@H](N)CC(C)C)c(C(F)(F)F)c2)ccn1
34 | – | – | 84% | 1.2 nM | 92% | 80% | 2100 nM | COC(=O)Nc1cc(-c2ccc(OC[C@@H](N)CC(C)C)c(F)c2)ccn1
35 | 1.1 nM | 0.08 nM | 99% | 0.4 nM | 91% | 64% | 3900 nM | CC(=O)Nc1cc(-c2ccc(OC[C@@H](N)CC(C)C)c(C)c2)ccn1
36 | 6.8 nM | 2.5 nM | 97% | – | 94% | 75% | 800 nM | CC(=O)Nc1cc(-c2cc(F)c(OC[C@@H](N)CC(C)C)c(Cl)c2)ccn1
37 | – | 27 nM | 100% | – | 90% | 90% | 1300 nM | CC(=O)Nc1cc(-c2cc(F)c(OC[C@@H](N)CC(C)C)c(F)c2)ccn1

— ChEMBL document CHEMBL5154787 (J Med Chem, 2022)
